Read-outs that look alike come from different tables or passages of the source.
Assays:
Test in all cases: whole plant or invertebrate
Format in all cases: in vivo
[1] = tested on: potato leafhopper (Empoasca fabae Harris); conditions: Empoasca fabae; for mortality at 10 ppm: rate 10 ppm; for mortality at 100 ppm: rate 100 ppm; for mortality at 1000 ppm: rate 1000 ppm
Description: (§1) Test compounds were formulated using a solution containing 10% acetone, 90% water and 300 ppm X-77® Spreader Lo-Foam Formula non-ionic surfactant containing alkylarylpolyoxyethylene, free fatty acids, glycols and 2-propanol (Loveland Industries, Inc.) to provide the desired concentration in ppm. Formulated test solutions were then applied in 1 mL volumes through a SUJ2 atomizer nozzle with 1/8 JJ custom body (Spraying Systems Co.) positioned 1.27 cm (0.5 inches) above the top of each test unit.
[…] White sand was added to the top of the soil, and one of the primary leaves was excised prior to application. Test compounds were formulated and sprayed with 3 replications as described for Test A. After spraying, the test units were allowed to dry for 1 hour before they were infested with 5 potato leafhoppers (18- to 21-day-old adults). A black, screened cap was placed on the top of each container. The test units were held for 6 days in a growth chamber at 19-21° C. and 50-70% relative humidity.

[2] = tested on: corn planthopper (Peregrines maidis); conditions: for mortality at 1000 ppm: rate 1000 ppm
Description: as §1
For evaluating control of corn planthopper (Peregrines maidis) through contact and/or systemic means, each test unit consisted of a small open cylindrical container with a 3- to 4-day-old corn (maize) plant (spike) inside. White sand was added to the top of the soil prior to application. Test compounds were formulated and sprayed with 3 replications as described for Test A. After spraying, the test units were allowed to dry for 1 hour before they were post-infested with 10 to 20 corn planthoppers (18- to 20-day-old nymphs) by sprinkling them onto the sand with a salt shaker. A black, screened cap was placed on the top of each container. The test units were held for 6 days in a growth chamber at 19-21° C. and 50-70% relative humidity.

[3] = tested on: green peach aphid (Myzus persicae Sulzer); conditions: Myzus persicae, in Raphanus sativus; for mortality at 10 ppm: rate 10 ppm; for mortality at 100 ppm: rate 100 ppm; for mortality at 1000 ppm: rate 1000 ppm
Description: as §1
(§2) For evaluating control of green peach aphid (Myzus persicae Sulzer) through contact and/or systemic means, each test unit consisted of a small open container with a 12- to 15-day-old radish plant inside. This was pre-infested by placing on a leaf of the test plant 30 to 40 aphids on a piece of leaf excised from a culture plant (cut-leaf method). The larvae moved onto the test plant as the leaf piece desiccated. After pre-infestation, the soil of the test unit was covered with a layer of sand.
(§3) Test compounds were formulated and sprayed as described in Test A, replicated three times. After spraying of the formulated test compound, each test unit was allowed to dry for 1 hour and then a black, screened cap was placed on top. The test units were held for 6 days in a growth chamber at 19-21° C. and 50-70% relative humidity.

[4] = tested on: cotton melon aphid (Aphis gossypii Glover); conditions: Aphis gossypii; for mortality at 10 ppm: rate 10 ppm; for mortality at 100 ppm: rate 100 ppm; for mortality at 1000 ppm: rate 1000 ppm
Description: as §1
as §2, with “cotton melon” for “green peach”, “(Aphis gossypii Glover)” for “(Myzus persicae Sulzer)”, “6-” for “12-”, “7-day-old cotton” for “15-day-old radish”
as §3, with “described for” for “described in”, “Test A. The applications were” for “Test A,”, “test compounds,” for “test compound,”

[5] = tested on: silverleaf whitefly (Bemisia argentifolii Bellows and Perring); conditions: Bemisia argentifolii, in Gossypium hirsutum; for mortality at 100 ppm: rate 100 ppm; for mortality at 1000 ppm: rate 1000 ppm
Description: For evaluating control of silverleaf whitefly (Bemisia argentifolii Bellows and Perring) through contact and/or systemic means, each test unit consisted of a small open container with a 12- to 14-day-old cotton plant inside. This was pre-infested by placing test units into cages infested with adult whiteflies so that oviposition on the cotton leaves could occur. The adults were removed from the plants with an air-blast nozzle, and the test units were capped. The test units were then stored 2 to 3 days before spraying.
as §1
The results for all experimental compositions in this test were replicated three times. After spraying of the formulated test composition, each test unit was allowed to dry for 1 hour and the cap removed. The test units were held for 13 days in a growth chamber at 28° C. and 50-70% relative humidity.

[6] = tested on: western flower thrip (Frankliniella occidentalis Pergande); conditions: Frankliniella occidentalis; for mortality at 500 ppm: rate 500 ppm; for mortality at 1000 ppm: rate 1000 ppm; for mortality at 10 ppm: rate 10 ppm
Description: as §1
For evaluating control of the western flower thrip (Frankliniella occidentalis Pergande) through contact and/or systemic means, each test unit consisted of a small open container with a 5- to 7-day-old bean (var. Soleil) plant inside.
Test solutions were formulated and sprayed with 3 replications as described for Test A. After spraying, the test units were allowed to dry for 1 hour, 22 to 27 adult thrips were added to each unit and then a black, screened cap was placed on top. The test units were held for 7 days at 25° C. and 45-55% relative humidity.

[7] = alone, read-out: % mortality (obs)
[8] = Corn Plant Hopper, read-out: % mortality (obs)
[9] = Green Peach Aphid, read-out: % mortality (obs)
[10] = Table 2B, rate 10 ppm, read-out: % mortality (obs)
[11] = Table 2B, read-out: % mortality (obs)
[12] = 168 h, single compound, spray, 7 days, read-out: % mortality (obs)
[13] = rate 1 ppm, alone, read-out: % mortality (obs)

Nc1nc(N)nc(NC2CC2)n1 [Cyromazine]
mortality at 10 ppm [1, 7]: 7% | mortality at 100 ppm [1, 7]: 0% | mortality at 1000 ppm [1, 7]: 0% | mortality at 200 ppm ([2]; Corn Plant Hopper, rate 200 ppm, read-out: % mortality (obs)): 4% | mortality at 500 ppm ([2]; Corn Plant Hopper, rate 500 ppm, read-out: % mortality (obs)): 8% | mortality at 1000 ppm [2, 8]: 8% | mortality at 10 ppm [3, 9]: 24% | mortality at 100 ppm [3, 9]: 33% | mortality at 1000 ppm [3, 9]: 65% | mortality at 10 ppm ([4]; read-out: % mortality (obs)): 23% | mortality at 100 ppm ([4]; read-out: % mortality (obs)): 34% | mortality at 1000 ppm ([4]; read-out: % mortality (obs)): 28% | mortality at 10 ppm [5, 10]: 1% | mortality at 100 ppm [5, 11]: 2% | mortality at 1000 ppm [5, 11]: 2% | mortality at 200 ppm ([6]; 168 h, rate 200 ppm, single compound, spray, 7 days, read-out: % mortality (obs)): 70% | mortality at 500 ppm [6, 12]: 80% | mortality at 1000 ppm [6, 12]: 70%

CC1(C)[C@H](C(=O)O[C@H](C#N)c2cccc(Oc3ccccc3)c2)[C@@H]1C=C(Br)Br [Deltamethrin]
mortality at 0.1 ppm ([1]; rate 0.1 ppm, alone, read-out: % mortality (obs)): 7% | mortality at 0.2 ppm ([1]; rate 0.2 ppm, alone, read-out: % mortality (obs)): 7% | mortality at 1 ppm [1, 13]: 60% | mortality at 0.1 ppm ([2]; Corn Plant Hopper, rate 0.1 ppm, read-out: % mortality (obs)): 11% | mortality at 0.2 ppm ([2]; Corn Plant Hopper, rate 0.2 ppm, read-out: % mortality (obs)): 14% | mortality at 0.3 ppm ([2]; Corn Plant Hopper, rate 0.3 ppm, read-out: % mortality (obs)): 7% | mortality at 250 ppm ([3]; Green Peach Aphid, rate 250 ppm, read-out: % mortality (obs)): 9% | mortality at 300 ppm ([3]; Green Peach Aphid, rate 300 ppm, read-out: % mortality (obs)): 3% | mortality at 1000 ppm [3, 9]: 9% | mortality at 0.1 ppm ([4]; rate 0.1 ppm, read-out: % mortality (obs)): 52% | mortality at 0.2 ppm ([4]; rate 0.2 ppm, read-out: % mortality (obs)): 39% | mortality at 0.3 ppm ([4]; rate 0.3 ppm, read-out: % mortality (obs)): 88% | mortality at 30 ppm ([5]; Table 2B, rate 30 ppm, read-out: % mortality (obs)): 2% | mortality at 40 ppm ([5]; Table 2B, rate 40 ppm, read-out: % mortality (obs)): 0% | mortality at 50 ppm ([5]; Table 2B, rate 50 ppm, read-out: % mortality (obs)): 1% | mortality at 10 ppm [6, 12]: 70% | mortality at 1000 ppm [6, 12]: 70% | mortality at 3000 ppm ([6]; 168 h, rate 3000 ppm, single compound, spray, 7 days, read-out: % mortality (obs)): 50%

CCOC(=O)NCCOc1ccc(Oc2ccccc2)cc1 [Fenoxycarb]
mortality at 10 ppm [1, 7]: 0% | mortality at 100 ppm [1, 7]: 20% | mortality at 1000 ppm [1, 7]: 0% | mortality at 10 ppm ([2]; Corn Plant Hopper, rate 10 ppm, read-out: % mortality (obs)): 8% | mortality at 100 ppm ([2]; Corn Plant Hopper, rate 100 ppm, read-out: % mortality (obs)): 2% | mortality at 1000 ppm [2, 8]: 5% | mortality at 10 ppm [3, 9]: 17% | mortality at 100 ppm [3, 9]: 16% | mortality at 1000 ppm [3, 9]: 18% | mortality at 10 ppm ([4]; read-out: % mortality (obs)): 16% | mortality at 100 ppm ([4]; read-out: % mortality (obs)): 23% | mortality at 1000 ppm ([4]; read-out: % mortality (obs)): 34% | mortality at 2 ppm ([5]; Table 2B, rate 2 ppm, read-out: % mortality (obs)): 0% | mortality at 10 ppm [5, 10]: 0% | mortality at 20 ppm ([5]; Table 2B, rate 20 ppm, read-out: % mortality (obs)): 21% | mortality at 10 ppm [6, 12]: 40% | mortality at 100 ppm ([6]; 168 h, rate 100 ppm, single compound, spray, 7 days, read-out: % mortality (obs)): 70% | mortality at 1000 ppm [6, 12]: 60%

CC1(C)CNC(=NN=C(/C=C/c2ccc(C(F)(F)F)cc2)/C=C/c2ccc(C(F)(F)F)cc2)NC1 [Hydramethylnon]
mortality at 0.01 ppm ([1]; rate 0.01 ppm, alone, read-out: % mortality (obs)): 0% | mortality at 1 ppm [1, 13]: 27% | mortality at 2 ppm ([1]; rate 2 ppm, alone, read-out: % mortality (obs)): 60% | mortality at 0.01 ppm ([2]; Corn Plant Hopper, rate 0.01 ppm, read-out: % mortality (obs)): 7% | mortality at 1 ppm ([2]; Corn Plant Hopper, rate 1 ppm, read-out: % mortality (obs)): 1% | mortality at 2 ppm ([2]; Corn Plant Hopper, rate 2 ppm, read-out: % mortality (obs)): 6% | mortality at 500 ppm ([3]; Green Peach Aphid, rate 500 ppm, read-out: % mortality (obs)): 18% | mortality at 1000 ppm [3, 9]: 8% | mortality at 1500 ppm ([3]; Green Peach Aphid, rate 1500 ppm, read-out: % mortality (obs)): 7% | mortality at 500 ppm ([4]; rate 500 ppm, read-out: % mortality (obs)): 21% | mortality at 1000 ppm ([4]; read-out: % mortality (obs)): 40% | mortality at 1500 ppm ([4]; rate 1500 ppm, read-out: % mortality (obs)): 39% | mortality at 10 ppm [5, 10]: 2% | mortality at 100 ppm [5, 11]: 1% | mortality at 1000 ppm [5, 11]: 0% | mortality at 10 ppm [6, 12]: 60% | mortality at 500 ppm [6, 12]: 50% | mortality at 1000 ppm [6, 12]: 40%

O=[N+]([O-])NC1=NCCN1Cc1ccc(Cl)nc1 [Imidacloprid]
mortality at 0.2 ppm ([1]; Table 4A, Imidacloprid 0.2 ppm, read-out: % Mortality (observed)): 20% | mortality at 0.4 ppm ([1]; Table 4A, Imidacloprid 0.4 ppm, read-out: % Mortality (observed)): 0% | mortality at 1 ppm ([1]; Table 4A, Imidacloprid 1 ppm, read-out: % Mortality (observed)): 20% | mortality at 0.1 ppm ([2]; Table 5A, Imidacloprid 0.1 ppm, read-out: % Mortality (observed)): 27% | mortality at 0.3 ppm ([2]; Table 5A, Imidacloprid 0.3 ppm, read-out: % Mortality (observed)): 37% | mortality at 1 ppm ([2]; Table 5A, Imidacloprid 1 ppm, read-out: % Mortality (observed)): 60% | mortality at 0.08 ppm ([3]; Table 7A, Imidacloprid 0.08 ppm, read-out: % Mortality (observed)): 4% | mortality at 0.15 ppm ([3]; Table 7A, Imidacloprid 0.15 ppm, read-out: % Mortality (observed)): 12% | mortality at 0.26 ppm ([3]; Table 7A, Imidacloprid 0.26 ppm, read-out: % Mortality (observed)): 50% | mortality at 0.05 ppm ([4]; Table 6A, Imidacloprid 0.05 ppm, read-out: % Mortality (observed)): 12% | mortality at 0.3 ppm ([4]; Table 6A, Imidacloprid 0.3 ppm, read-out: % Mortality (observed)): 10% | mortality at 2.1 ppm ([4]; Table 6A, Imidacloprid 2.1 ppm, read-out: % Mortality (observed)): 40% | mortality at 10 ppm ([5]; Table 2A, Imidacloprid 10 ppm, read-out: % Mortality (observed)): 1% | mortality at 22 ppm ([5]; Table 2A, Imidacloprid 22 ppm, read-out: % Mortality (observed)): 2% | mortality at 48 ppm ([5]; Table 2A, Imidacloprid 48 ppm, read-out: % Mortality (observed)): 25% | mortality at 11 ppm ([6]; Table 3A, Imidacloprid 11 ppm, read-out: % Mortality (observed)): 20% | mortality at 77 ppm ([6]; Table 3A, Imidacloprid 77 ppm, read-out: % Mortality (observed)): 37% | mortality at 561 ppm ([6]; Table 3A, Imidacloprid 561 ppm, read-out: % Mortality (observed)): 90%

— patent US8937089B2, “Synergistic mixtures of anthranilamide invertebrate pest control agents” (priority 2004, dated 2015)
